US9434759B1, “Cationic steroidal antimicrobial compounds and methods of manufacturing such compounds” (BRIGHAM YOUNG UNIVERSITY, priority 2015, dated 2016)

Test system: Radiation Induced Oral Mucositis
Assay: Syrian Hamster Model Radiation Induced Oral Mucositis Study
Type: in vivo
Details: 40 Gy radiation Day 0
Description: Various CSA compounds were screened to determine and compare therapeutic effect on oral mucositis. The test was conducted according to a Syrian Hamster Model Radiation Induced Oral Mucositis Study Design as in Table 1. [table] The objective of the study was to identify compounds that can maintain oral mucositis score below 3 in hamster model according to the scoring system in Table 2. [table]

Compound: CCCCCCCCNC(=O)CC[C@@H](C)[C@H]1CC[C@H]2[C@@H]3[C@H](OCCCN)C[C@@H]4C[C@H](OCCCN)CC[C@]4(C)[C@H]3C[C@H](OCCCN)[C@]12C [CSA-192]
- reduction in oral mucositis (percent of animal days with mucositis, FIG. 2) (topical T.I.D. Day -1 to 28, 300 or 1000 ppm, mucositis evaluated Day 6 to 28): greater than 90%
- oral mucositis severity scores (FIG. 3) (topical T.I.D. Day -1 to 28, score 0-5 every 2 days, Day 6 to 28): strongest and longest lasting reduction in oral mucositis
